# In US20220362279A1, “USE OF OLIGONUCLEOTIDES FOR THE TREATMENT AND PREVENTION OF PAIN” (CONSEJO NACIONAL DE INVESTIGACIONES CIENTÍFICAS Y TÉCNICAS, priority 2018, published 2022):
# “Also recorded” adds a separate entry of the source. Strand notation (5' to 3'): a small letter for the sugar, then the base; units joined by * are phosphorothioate-linked, units joined directly phosphodiester-linked; [ ] holds rarer units or linkages, { } end groups; capitals alone tell only the bases. d = 2'-deoxy (DNA)
# Assays:
# naïve rats = test: Hind paw mechanical withdrawal threshold in naïve rats; format: in vivo, rat; conditions: 20 mg/kg daily x5; observed up to 22 days; vs saline-treated naïve rats
# Protocol: Naïve (uninjured and untreated; n=16), CFA injured untreated (n=10), and vehicle-treated CFA (n=9) or SNI rats (n=10) were used as controls. Eight naïve rats remained untreated, four were vehicle-treated, and four received a daily dose of 20 mg/kg IMT504 for five consecutive days. Untreated CFA rats received an intradermal hind paw injection of CFA and no further treatment. Vehicle-treated CFA rats received five daily subcutaneous injections of saline (200 μl), starting seven days after injury. Vehicle-treated SNI rats received one single dose of saline (200 ul), starting seven days after injury.
# For mechanical allodynia assessment, a set of von Frey filaments (Stoelting, Ill., USA) and the modified up-down method of Dixon were used, as described by Chaplan et al. (Chaplan S R, et, al., (1994) J. Neurosci Methods 53: 55-632) to establish the 50% withdrawal threshold. A withdrawal threshold of 6 g or less was considered an allodynic response.
# [1] = tested on: rats with postsurgical pain (plantar incision); test: Opioid sparing: morphine in VEH- or IMT504-pre-treated rats with plantar incision, mechanical withdrawal threshold; format: in vivo, rat
# Protocol: In all experiments, the oligodeoxynucleotide (ODN) IMT504, with sequence 5′-[…]-3′ (SEQ ID No 1) was used. The HPLC-grade phosphorothioate ODN (Biosynthesis Inc., Lewisville, Tex., USA) was suspended in sterile saline solution (VEH, 0.9% NaCl; 20 mg/ml; storage concentration) and assayed for LPS contamination. Working concentration doses (6 mg/kg) were obtained by additional dissolving in sterile VEH. The ODN was administered subcutaneously, at a final volume of 200-300 μl, depending on animal weight.
# Experiments addressing the opioid sparing effects of IMT504 included the subcutaneous (s.c.) injection of morphine hydrochloride trihydrate (Neocalmans, 10 mg/ml, Soubeiran Chobet, Buenos Aires, Argentina) at three different concentrations (1, 3 or 10 mg/kg, dissolved in sterile distilled water).
# The rat hind paw plantar incision model of postoperative pain was used as previously described [Brennan, T. J., E. P. Vandermeulen, and G. F. Gebhart, Characterization of a rat model of incisional pain. Pain, 1996. 64(3): p. 493-501. Briefly, rats were anesthetized using isoflurane (5% induction, 2.5% maintenance, 0.8 l/min O2 flow rate; Piramal Healthcare, UK) and the plantar aspect of the right hind paw was disinfected with povidone iodine. A 1.0-cm longitudinal incision was made 0.5 cm from the end of the heel. The underlying flexor muscle was also incised longitudinally, allowing the muscle origin and insertion to remain intact. After hemostasis by gentle pressure, the skin was closed with sutures of 5-0 nylon.
# Rats were divided into injured rats receiving IMT504 (6 mg/kg, dissolved in VEH) or VEH alone, 48h and 24 h prior to surgery. These groups were further subdivided into: 1) Rats followed during 3 days after the injury (n=6 per group), for assessment of pain-like behavior after the co-administration of morphine dissolved in injectable water (vehicle) at different doses, 6 and 24 h after injury; 2) Rats followed during 3 days after the injury (n=6 per group), for assessment of pain-like behavior after the co-administration of injectable water (vehicle) alone, 6 and 24 h after injury; 3) Rats followed during 21 days (n=8), for analysis of the administration of naloxone, 3 days after injury.
# Mechanical withdrawal thresholds were assessed by using von Frey nylon monofilaments of different bending forces (1.4, 2, 6, 8, 10, 15 and 26 g; Stoelting Inc., Wooddale, USA) and the modified up-down method of Dixon, as described by Chaplan and cols. (Chaplan, S. R., et al., Quantitative assessment of tactile allodynia in the rat paw. J Neurosci Methods, 1994. 53(1): p. 55-63) , to establish the 50% withdrawal threshold. Results were obtained using the formula: 50% g threshold=[…], where Xf=value (in log units) of the final von Frey hair used; k=tabular value for the pattern of positive/negative responses; and […] difference (in log units) between stimuli. Mechanical withdrawal thresholds were tested 48 h before surgery (basal responses), and 6 h, 1, 3, 7, 14 and 21 days after injury.
# A dose-response experiment to evaluate the effect of the s.c. administration of morphine at different doses (10, 3 and 1 mg/kg), 6 h or 1 day after injury, in VEH- or IMT504-treated rats (time-points were chosen based on the fact that a certain degree of mechanical withdrawal threshold alterations was still present in IMT504-treated rats was done, which allowed to test if within this therapeutic window, it was possible to fully revert pain-like behavior using smaller morphine doses). […]
substance,measurement,setting,value
IMT504: synthetic phosphorothioate oligodeoxynucleotide with sequence 5′-TCATCATTTTGTCATTTTGTCATT-3′ (SEQ ID No 1) (DNA dT*dC*dA*dT*dC*dA*dT*dT*dT*dT*dG*dT*dC*dA*dT*dT*dT*dT*dG*dT*dC*dA*dT*dT),hind paw mechanical withdrawal threshold in naïve rats,naïve rats,did not shown changes; also recorded: did not show any evident changes
same,anti-allodynic effect of pre-emptive IMT504 and 3 mg/kg morphine,[1]; 6 h and 1 day after injury challenges,anti-allodynic effects directly comparable to those described for the 10 mg/kg dose in VEH rats
same,time post injection of morphine with withdrawal thresholds remaining significantly higher,"[1]; IMT504-pre-treated rats (6 mg/kg, 48 h and 24 h before surgery), particularly at morphine 3 and 10 mg/kg",≥ 120 min
same,withdrawal threshold once the effect of the opioid had worn out (240 min),"[1]; IMT504 rats receiving 10 mg/kg morphine, 1 day after injury, vs VEH counterparts",retained a significantly higher withdrawal threshold than their VEH counterparts
same,reduction in morphine concentration to achieve the same effect as in VEH-treated injured rats receiving the highest dose,"[1]; area under the curve analyses (FIG. 16, FIG. 17)",3 fold
